Experimental data: the supplement of paper PMC10307832

What was measured:
Assay in all cases: relative viability (nuclei count vs DMSO), 5 days (fraction); higher = more cells survive
[1] = compound: COc1cc2nc(N3CCCN(C)CC3)nc(NC3CCN(Cc4ccccc4)CC3)c2cc1OC + Cc1cc(Nc2cc(N3CCN(C)CC3)nc(Sc3ccc(NC(=O)C4CC4)cc3)n2)n[nH]1 [Tozasertib] (partner 0.1 µM)
Procedure, shortened: (§1)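 Lung cancer cell lines were pin-tool dosed in 1536-well plates on the day after seeding, with either a lone drug or a fixed anchor-drug dose plus five library-drug doses (not always all listed) in √10 steps. Nuclei were counted on 4× images after 5 days. Relative viability is the ratio of treated-well to vehicle-well nuclei counts, with each value a median of duplicate plates.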

[2] = compound: Cc1cc([C@@H](C)Nc2ccccc2C(=O)O)c2nc(N3CCOCC3)cc(=O)n2c1 [AZD6482] + CC(=O)c1c(C)c2cnc(Nc3ccc(N4CCNCC4)cn3)nc2n(C2CCCC2)c1=O [Palbociclib] (partner 0.5 µM)
Procedure, shortened: as §1

[3] = compound: Cc1cc([C@@H](C)Nc2ccccc2C(=O)O)c2nc(N3CCOCC3)cc(=O)n2c1 [AZD6482] + O=C(c1cc(Cc2n[nH]c(=O)c3ccccc23)ccc1F)N1CCN(C(=O)C2CC2)CC1 [Olaparib] (partner 8 µM)
Procedure, shortened: as §1

[4] = compound: Cc1cc([C@@H](C)Nc2ccccc2C(=O)O)c2nc(N3CCOCC3)cc(=O)n2c1 [AZD6482] + CS(=O)(=O)CCNCc1ccc(-c2ccc3ncnc(Nc4ccc(OCc5cccc(F)c5)c(Cl)c4)c3c2)o1 [Lapatinib] (partner 2 µM)
Procedure, shortened: as §1

UMC-11 gave a relative viability ([1]; first compound 0.2 µM) of 0.202, a relative viability ([1]; first compound 0.6325 µM) of 0.214 and a relative viability ([1]; first compound 2 µM) of 0.212. The relative viability ([1]; first compound 6.325 µM) was 0.2, the relative viability ([2]; first compound 0.08 µM) was 0.342 and the relative viability ([2]; first compound 0.253 µM) was 0.297. It also gave a relative viability ([2]; first compound 0.8 µM) of 0.321, a relative viability ([2]; first compound 8 µM) of 0.324 and a relative viability ([3]; first compound 0.08 µM) of 0.738. The relative viability ([3]; first compound 0.253 µM) was 0.358, the relative viability ([3]; first compound 0.8 µM) was 0.357 and the relative viability ([3]; first compound 2.53 µM) was 0.345. The relative viability ([3]; first compound 8 µM) was 0.338, the relative viability ([4]; first compound 0.08 µM) was 0.875 and the relative viability ([4]; first compound 0.253 µM) was 0.902. The relative viability ([4]; first compound 0.8 µM) was 1.03, the relative viability ([4]; first compound 2.53 µM) was 0.602 and the relative viability ([4]; first compound 8 µM) was 1.34.
